Like-named read-outs stand apart in the source and are kept apart here.
Assays:
[1] = target: T1, AChE (EC 3.1.1.7, from electric eel) (Electrophorus electricus, UniProt O42275); assay: In vitro AChE inhibitory activity assay (modified Ellman's method); format: biochemical; details: tested at 100 μM, triplicate
T1 construct: purchased Aladdin (Shanghai, China)
Procedure: (§1) The inhibitory activities against AChE (EC 3.1.1.7) and BChE (EC 3.1.1.8) of the fungal samples and test compounds were analyzed following Ellman’s method ([Ellman et al., 1961]) with modifications. AChE (EC 3.1.1.7, from electric eel), BChE (EC 3.1.1.8, from equine serum), acetylthiocholine iodide (ATCI), butyrylthiocholine iodide (BTCI), and 5,5′-dithiobis (2-nitrobenzoic acid) (DTNB) were purchased from Aladdin (Shanghai, China). AChE and BChE solutions were prepared with water (0.2 units/ml). ATCI and BTCI solutions (10 mM) were prepared with deionized water before using. A DTNB solution (10 mM) was prepared in a 0.1 M, pH 8.0 solution of potassium dihydrogen phosphate (1.36 g, 10 mmol) in 100 ml of water (PBS). The fungal samples for screening were diluted to 1.0 mg/ml with methanol. The test compounds were dissolved in methanol (10 mM) as stock solutions. Subsequently, at least five different concentrations of each compound (double ratio dilution with methanol) were used to determine the half maximal inhibitory concentration (IC50). The tests were performed using 96-well plates. First, 160 μl of PBS, 2 μl of the test sample solution, 20 μl of AChE or BChE, and 10 μl of DTNB were added and mixed in each well, and then preincubated at 37°C for 10 min. After the addition of 10 μl of ATCI or BTCI, the reaction was initiated and incubated at 37°C for another 10 min. Then, the absorbance was measured at 412 nm. The wells with 2 μl of methanol replacing the test sample solution was used to determine 100% of the enzyme activity, and 20 μl of water replacing the enzyme solution was used to determine the blank value. All of the tests for each sample were performed in triplicate. The inhibition curve was fitted by plotting the inhibition rate vs. the logarithm of the test compound concentration. The IC50 values were calculated using Microsoft Excel software, and the data were expressed as the mean ± SD. The inhibition rate was calculated using the formula: IR% = [(Ac-As)]/[(Ac-Ab)] × 100%, where Ab denotes the absorbance of the blank control without the enzyme solution, Ac represents the absorbance of the control without the sample solution, and As denotes the absorbance of the sample.

[2] = target: T2, BChE (EC 3.1.1.8, from equine serum) (Equus caballus, UniProt P81908); assay: biochemical; format: biochemical; details: for BChE IR, %: tested at 100 μM, triplicate
T2 construct: BChE (EC 3.1.1.8, from equine serum); purchased Aladdin (Shanghai, China); host or cells: equine serum
T2 sequence (P81908 whole entry): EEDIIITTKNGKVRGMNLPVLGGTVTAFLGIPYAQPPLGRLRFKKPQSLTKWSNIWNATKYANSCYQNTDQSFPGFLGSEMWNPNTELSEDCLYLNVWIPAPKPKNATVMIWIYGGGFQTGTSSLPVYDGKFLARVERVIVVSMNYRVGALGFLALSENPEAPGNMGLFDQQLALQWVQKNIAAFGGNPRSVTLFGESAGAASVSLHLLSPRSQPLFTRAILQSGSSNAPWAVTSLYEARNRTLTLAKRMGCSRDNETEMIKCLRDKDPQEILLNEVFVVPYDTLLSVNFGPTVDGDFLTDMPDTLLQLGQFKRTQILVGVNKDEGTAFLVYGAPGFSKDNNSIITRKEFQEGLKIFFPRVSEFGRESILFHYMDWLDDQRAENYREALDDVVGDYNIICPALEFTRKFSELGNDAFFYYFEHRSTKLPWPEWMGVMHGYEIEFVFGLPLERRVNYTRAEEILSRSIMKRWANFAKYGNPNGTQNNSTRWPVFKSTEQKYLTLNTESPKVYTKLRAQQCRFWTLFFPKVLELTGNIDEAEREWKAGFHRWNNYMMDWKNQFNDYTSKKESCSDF
Procedure: The fresh spore suspensions of SGP-1 and the seven other strains were inoculated into an Erlenmeyer flask (250 ml) containing 100 ml of liquid medium (glucose 2%, maltose 1%, mannitol 2%, glutamic acid 1%, peptone 0.5%, and yeast extract 0.3% in distilled water) and fermented at 28°C for 12 days on a rotary shaker at 200 rpm. To each fermentation broth was added 200 ml of ethyl acetate (EtOAc), and extraction was performed with the assistance of ultrasonication (40 kHz) for 30 min. The EtOAc solutions were removed in vacuo at 37°C to produce the EtOAc extracts. Each fungal EtOAc extract was dissolved in methanol at a concentration of 100.0 mg/ml, and was further diluted to a […] solution used for an in vitro BChE inhibitory activity assay. A sample of strain SGP-1 was analyzed using an HPLC-photo-diode array detector (PDAD)-UV with an analytical Kromasil C18 column (5 μm, 100 Å, 4.6 mm × 250 mm; Akzo Nobel) on an Agilent 1100 HPLC system equipped with a PDAD (G1316A). The extraction solution in methanol (100.0 mg/ml) was filtered with a 0.45-μm membrane, and then injected (20 μl) into the column, followed by elution with an MeOH-H2O linear gradient (20%→100% MeOH in 20 min followed by 5 min with isocratic 100% MeOH) mobile phase (flow rate 1 ml/min). During the separation procedure, the constituents of the emerging chromatographic peaks were collected in Eppendorf tubes with 2 s of delay. Each eluate was fixed to a volume of 200 μl, which was then used for the BChE inhibitory activity assay. The acquired PDAD data, including the UV spectra of peaks, were processed using Agilent OpenLAB software.
as §1

[3] = target: T2, BChE (EC 3.1.1.8, from equine serum); assay: Kinetic study of BChE inhibition (Lineweaver-Burk and secondary plots); format: biochemical
Procedure: Kinetic studies were performed using the same protocol as the BChE inhibitory activity assay, and the substrate BTCI was used in a series of concentrations, 0.2, 0.4, 0.5, 0.6, and 0.7 mM. The test compound concentrations were set according to the inhibition IC50 of each compound. The enzymatic reaction was extended to 15 min before the detection of the absorbance. Lineweaver–Burk plots were generated to obtain the kinetic parameters, Michaelis constant (Km) and maximum velocity (Vmax), according to which inhibition modes were determined.

[4] = target: α-glucosidase; details: earlier study quoted in discussion; no reference given; cited from earlier work
[5] = sample concentration that led to 50% enzyme activity loss, mean ± SD, read-out: BChE IC50
[6] = BChE, competitive inhibition, secondary plot of K vs [I], read-out: Ki (inhibition constant)

T1 sequence (O42275 24-633): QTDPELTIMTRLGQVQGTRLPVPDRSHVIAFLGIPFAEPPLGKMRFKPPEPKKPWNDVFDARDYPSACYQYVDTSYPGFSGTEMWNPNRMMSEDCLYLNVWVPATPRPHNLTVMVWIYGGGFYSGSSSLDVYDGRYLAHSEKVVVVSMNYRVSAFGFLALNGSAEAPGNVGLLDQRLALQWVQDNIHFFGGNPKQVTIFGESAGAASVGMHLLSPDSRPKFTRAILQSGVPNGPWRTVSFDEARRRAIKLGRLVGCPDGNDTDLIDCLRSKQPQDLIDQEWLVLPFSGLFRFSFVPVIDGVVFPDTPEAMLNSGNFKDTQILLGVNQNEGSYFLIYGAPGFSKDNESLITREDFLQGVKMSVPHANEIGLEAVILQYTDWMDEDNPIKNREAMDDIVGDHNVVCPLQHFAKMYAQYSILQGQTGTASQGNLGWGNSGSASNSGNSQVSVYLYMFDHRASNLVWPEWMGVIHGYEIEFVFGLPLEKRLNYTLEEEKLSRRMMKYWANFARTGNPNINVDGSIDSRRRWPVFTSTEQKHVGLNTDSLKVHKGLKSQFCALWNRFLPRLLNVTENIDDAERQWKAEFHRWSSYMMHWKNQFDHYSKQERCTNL

SMILES: COC(=O)C1(Cc2ccc(O)cc2)OC(=O)C(O)=C1c1ccc(O)cc1 (centres unmarked) [Compound 9, butyrolactone II]
- AChE IR, % [1]: 9.6 ± 0.5%
- IC50 [2, 5]: > 100 µM
- BChE IR, % [2]: 19.9 ± 6.0%

SMILES: COC(=O)C1(O)OC(=O)C(Cc2ccc(O)c(CCC(C)(C)O)c2)=C1c1ccc(O)cc1 (centres unmarked) [Compound 2, methyl-2-hydroxy-4-(4-hydroxy-3-(3-hydroxy-3-methylbutyl)benzyl)-3-(4-hydroxyphenyl)-5-oxo-2,5-dihydrofuran-2-carboxylate]
- AChE IR, % [1]: 7.7 ± 1.0%
- IC50 [2, 5]: > 100 µM
- BChE IR, % [2]: 3.2 ± 3.6%

SMILES: COC(=O)[C@@]1(O)OC(=O)C(Cc2ccc3c(c2)CCC(C)(C)O3)=C1c1ccc(O)cc1 [Compound 3, flavipesolide B]
- AChE IR, % [1]: 19.6 ± 4.2%
- IC50 [2, 5]: > 100 µM
- BChE IR, % [2]: 22.5 ± 3.1%

SMILES: COc1ccc2c3c1O[C@H]1C[C@@H](O)C=C[C@@]31CCN(C)C2 [Galantamine, reference compound]
- BChE IR, % [2]: 72.4 ± 1.2%
- BChE IR, % ([2]; listed as galantamine): 72.4%

SMILES: COC(=O)[C@@]1(O)OC(=O)C(Cc2ccc(O)c(CC=C(C)C)c2)=C1c1ccc(O)cc1 [Compound 4, butyrolactone VIII]
- AChE IR, % [1]: 11.9 ± 1.0%
- Ki [3, 6]: 23.6 µM
- IC50 [2, 5]: 45.8 ± 6.9 µM
- BChE IR, % [2]: 67.3 ± 2.8%

SMILES: COC(=O)C1(O)OC(=O)C(Cc2ccc(O)c(CCC(C)(C)OC)c2)=C1c1ccc(O)cc1 (centres unmarked) [Compound 1, methyl-2-hydroxy-4-(4-hydroxy-3-(3-methoxy-3-methylbutyl)benzyl)-3-(4-hydroxyphenyl)-5-oxo-2,5-dihydrofuran-2-carboxylate]
- AChE IR, % [1]: 11.2 ± 3.6%
- IC50 [2, 5]: > 100 µM
- BChE IR, % [2]: 15.6 ± 2.3%

SMILES: COC(=O)C1(Cc2ccc3c(c2)CC(C(C)(C)O)O3)OC(=O)C(O)=C1c1ccc(O)cc1 (centres unmarked) [Compound 15, butytolactone IV]
- AChE IR, % [1]: 13.3 ± 5.5%
- IC50 [2, 5]: > 100 µM
- BChE IR, % [2]: 33.5 ± 2.3%

SMILES: COC(=O)C1(Cc2ccc(O)c(CC=C(C)C)c2)OC(=O)C(O)=C1c1ccccc1 (centres unmarked) [Compound 5, versicolactone B]
- AChE IR, % [1]: 10.4 ± 1.9%
- Ki [3, 6]: 38.2 µM
- IC50 [2, 5]: 44.3 ± 3.7 µM
- BChE IR, % [2]: 64.4 ± 3.2%

SMILES: COC(=O)C1(Cc2ccc3c(c2)CCC(C)(C)O3)OC(=O)C(O)=C1c1ccc(O)cc1 (centres unmarked) [Compound 11, aspernolide A]
- AChE IR, % [1]: −0.1 ± 0.7%
- IC50 [2, 5]: > 100 µM
- BChE IR, % [2]: 25.4 ± 3.7%

SMILES: CC(C)=CCc1cc(/C=C2\OC(=O)C(c3ccc(O)c(CC=C(C)C)c3)=C2O)ccc1O [Aspulvinone H, aspulvinone H, reference compound]
- AChE IR, % [1]: 9.6 ± 3.4%
- IC50 [2, 5]: > 100 µM
- BChE IR, % [2]: 6.5 ± 2.6%

SMILES: COC(=O)C1(Cc2ccc(O)c(CC3OC3(C)C)c2)OC(=O)C(O)=C1c1ccc(O)cc1 (centres unmarked) [Compound 14, butyrolactone III]
- AChE IR, % [1]: −4.2 ± 0.3%
- IC50 [2]: > 100 µM
- BChE IR, % [2]: -12.3 ± 4.6%

SMILES: COC(=O)[C@@]1(Cc2ccc(O)c(CC=C(C)C)c2)OC(=O)C(O)=C1c1ccc(O)cc1 [Compound 6, butyrolactone I]
- IC50 [4]: 1.52 µM
- AChE IR, % [1]: −6.7 ± 3.6%
- Ki [3]: 19.3 µM
- IC50 [2]: 35.5 ± 1.3 µM
- BChE IR, % [2]: 68.0 ± 4.1%

SMILES: COC(=O)C1(Cc2ccc(O)c(CCC(C)(C)OC)c2)OC(=O)C(O)=C1c1ccc(O)cc1 (centres unmarked) [Compound 13, aspernolide C]
- AChE IR, % [1]: 3.9 ± 0.9%
- IC50 [2, 5]: > 100 µM
- BChE IR, % [2]: 22.6 ± 5.3%

SMILES: COC(=O)C1(Cc2ccc(O)c(CCC(C)(C)O)c2)OC(=O)C(O)=C1c1ccc(O)cc1 (centres unmarked) [Compound 12, aspernolide B]
- AChE IR, % [1]: 2.2 ± 1.5%
- IC50 [2, 5]: > 100 µM
- BChE IR, % [2]: 13.4 ± 1.3%

SMILES: CC1(C)CCc2cc(CC3OC(=O)C(O)=C3c3ccc(O)cc3)ccc2O1 (centres unmarked) [Compound 10, 5-[(3,4-dihydro-2,2-dimethyl-2H-1-benzopyran-6-yl)methyl]-3-hydroxy-4-(4-hydroxyphenyl)-2(5H)-furanone]
- AChE IR, % [1]: 23.2 ± 1.1%
- IC50 [2, 5]: > 100 µM
- BChE IR, % [2]: 33.3 ± 7.5%

SMILES: CCOC(=O)C1(Cc2ccc(O)c(CC=C(C)C)c2)OC(=O)C(O)=C1c1ccc(O)cc1 (centres unmarked) [Compound 7, butyrolactone VII]
- AChE IR, % [1]: 11.7 ± 1.4%
- Ki [3, 6]: 12.3 µM
- IC50 [2, 5]: 18.4 ± 2.5 µM
- BChE IR, % [2]: 76.0 ± 3.5%

SMILES: CC(C)=CCc1cc(CC2OC(=O)C(O)=C2c2ccc(O)cc2)ccc1O (centres unmarked) [Compound 8, 3-hydroxy-5-[[4-hydroxy-3-(3-methyl-2-buten-1-yl)phenyl]methyl]-4-(4-hydroxyphenyl)-2(5H)-furanone]
- AChE IR, % [1]: 14.2 ± 0.5%
- Ki [3, 6]: 35.7 µM
- IC50 [2, 5]: 45.1 ± 7.2 µM
- BChE IR, % [2]: 60.9 ± 0.6%
